According to ChEMBL document CHEMBL4732192, “Discovery and optimization of a novel CNS penetrant series of mGlu PAMs based on a 1,4-thiazepane core with in vivo efficacy in a preclinical Parkinsonian model” (Bioorg Med Chem Lett, 2021):
Converted amounts (≈) assume the structure as drawn.

How the values were obtained:
[1] = target: Metabotropic glutamate receptor 4 (Rattus norvegicus, UniProt P31423); test: Positive allosteric modulation of rat mGlu4 receptor expressed in HEK293 cells co- expressing GIRK channel by thallium mobilization assay; assay type: cell-based
[2] = target: Metabotropic glutamate receptor 4 (Rattus norvegicus) (UniProt P31423); test: Positive allosteric modulation of rat mGlu4 receptor expressed in HEK293 cells co- expressing GIRK channel by thallium mobilization assay relative to control; assay type: cell-based
[3] = Kinetic solubility of compound; assay type: physicochemical; details: read-out: Kinetic_solubility
[4] = test system: Rattus norvegicus; test: Reversal of haloperidol-induced catalepsy in Sprague-Dawley rat assessed as reduction in catalepsy at 3 mg/kg, ip and measured after 15 mins relative to untreated control; assay type: functional; details: 0.25 h
[5] = target: Metabotropic glutamate receptor 2 (Homo sapiens, UniProt Q14416); test: Displacement of [3H]LY341495 from full length human recombinant mGluR2 expressed in Chem-1 cells incubated for 60 mins by radiometric scintillation counting analysis; assay type: cell-based
[6] = Protein binding in rat brain assessed as unbound fraction; assay type: ADME, tissue-based
[7] = target: Metabotropic glutamate receptor 3 (Homo sapiens, UniProt Q14832); test: Binding affinity to mGlu3 (unknown origin)
[8] = target: Metabotropic glutamate receptor 1 (Rattus norvegicus, UniProt P23385); test: Displacement of [3H]quisqualate from mGluR1 from rat brain incubated for 60 mins by radiometric scintillation counting analysis; assay type: tissue-based
[9] = test system: Rattus norvegicus; test: Reversal of haloperidol-induced catalepsy in Sprague-Dawley rat assessed as reduction in catalepsy at 10 mg/kg, ip and measured after 15 mins relative to untreated control; assay type: functional; details: 0.25 h
[10] = Ratio of drug level in rat brain to plasma assessed as unbound permeability coefficient at 0.2 mg/kg, iv; assay type: ADME, organism-based; details: read-out: K(p,uu,brain)
[11] = target: Metabotropic glutamate receptor 7 (Homo sapiens, UniProt Q14831); test: Binding affinity to mGlu7 (unknown origin)
[12] = test system: Rattus norvegicus; test: Reversal of haloperidol-induced catalepsy in Sprague-Dawley rat administered intraperitoneally and measured after 15 mins; assay type: functional, organism-based; details: dose 3-30 mg/kg
[13] = Protein binding in rat plasma assessed as unbound fraction; assay type: ADME, cell-free
[14] = test system: Rattus norvegicus; test: Reversal of haloperidol-induced catalepsy in Sprague-Dawley rat assessed as latency time for withdrawl at 10 mg/kg, ip and measured after 15 mins (reference value: 49.8 sec); assay type: functional; details: 0.25 h
[15] = Ratio of drug level in rat brain to plasma assessed as permeability coefficient at 0.2 mg/kg, iv; assay type: ADME, organism-based
[16] = test system: Rattus norvegicus; test: Reversal of haloperidol-induced catalepsy in Sprague-Dawley rat assessed as latency time for withdrawl at 30 mg/kg, ip and measured after 15 mins (reference value: 49.8 sec); assay type: functional; details: 0.25 h
[17] = test system: Rattus norvegicus; test: Reversal of haloperidol-induced catalepsy in Sprague-Dawley rat assessed as reduction in catalepsy at 30 mg/kg, ip and measured after 15 mins relative to untreated control; assay type: functional; details: 0.25 h
[18] = test system: Rattus norvegicus; test: Reversal of haloperidol-induced catalepsy in Sprague-Dawley rat assessed as latency time for withdrawl at 3 mg/kg, ip and measured after 15 mins (reference value: 49.8 sec); assay type: functional; details: 0.25 h
[19] = target: Metabotropic glutamate receptor 5 (Homo sapiens, UniProt P41594); test: Binding affinity to mGlu5 (unknown origin)
[20] = Protein binding in human plasma assessed as unbound fraction; assay type: ADME, cell-free
[21] = test system: Rattus norvegicus; test: Reversal of haloperidol-induced catalepsy in ip dosed Sprague-Dawley rat assessed as latency time for withdrawl measured after 15 mins (reference value: 49.8 sec); assay type: functional; details: 0.25 h
[22] = test system: Rattus norvegicus; test: Reversal of haloperidol-induced catalepsy in ip dosed Sprague-Dawley rat assessed as reduction in catalepsy measured after 15 mins relative to untreated control; assay type: functional; details: 0.25 h
[23] = filed as positive allosteric modulator

Chain of Metabotropic glutamate receptor 4 (P31423 whole entry): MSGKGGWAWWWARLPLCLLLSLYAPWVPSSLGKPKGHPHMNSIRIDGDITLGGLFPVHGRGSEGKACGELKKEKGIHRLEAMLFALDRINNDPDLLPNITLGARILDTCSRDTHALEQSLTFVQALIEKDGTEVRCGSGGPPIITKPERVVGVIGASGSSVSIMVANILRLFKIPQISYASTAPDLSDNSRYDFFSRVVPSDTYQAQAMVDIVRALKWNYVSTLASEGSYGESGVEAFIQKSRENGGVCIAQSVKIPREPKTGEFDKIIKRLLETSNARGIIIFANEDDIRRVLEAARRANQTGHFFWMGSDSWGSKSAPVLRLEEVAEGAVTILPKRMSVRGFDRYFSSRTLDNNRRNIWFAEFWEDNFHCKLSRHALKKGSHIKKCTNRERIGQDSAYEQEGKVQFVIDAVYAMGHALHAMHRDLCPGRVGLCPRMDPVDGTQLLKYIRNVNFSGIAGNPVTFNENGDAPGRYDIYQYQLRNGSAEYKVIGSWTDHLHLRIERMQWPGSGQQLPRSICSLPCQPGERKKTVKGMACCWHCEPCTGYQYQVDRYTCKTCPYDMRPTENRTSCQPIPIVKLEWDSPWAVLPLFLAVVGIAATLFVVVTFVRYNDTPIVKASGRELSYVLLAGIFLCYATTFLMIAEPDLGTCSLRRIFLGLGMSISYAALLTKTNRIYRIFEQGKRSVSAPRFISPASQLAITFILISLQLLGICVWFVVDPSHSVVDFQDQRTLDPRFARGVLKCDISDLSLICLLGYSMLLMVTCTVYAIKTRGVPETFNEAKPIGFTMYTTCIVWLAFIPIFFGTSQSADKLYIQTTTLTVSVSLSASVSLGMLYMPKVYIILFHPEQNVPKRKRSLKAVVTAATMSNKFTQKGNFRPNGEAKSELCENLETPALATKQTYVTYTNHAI
Chain of Metabotropic glutamate receptor 4 (Rattus norvegicus) (P31423 whole entry): as above
Chain of Metabotropic glutamate receptor 7 (Q14831 whole entry): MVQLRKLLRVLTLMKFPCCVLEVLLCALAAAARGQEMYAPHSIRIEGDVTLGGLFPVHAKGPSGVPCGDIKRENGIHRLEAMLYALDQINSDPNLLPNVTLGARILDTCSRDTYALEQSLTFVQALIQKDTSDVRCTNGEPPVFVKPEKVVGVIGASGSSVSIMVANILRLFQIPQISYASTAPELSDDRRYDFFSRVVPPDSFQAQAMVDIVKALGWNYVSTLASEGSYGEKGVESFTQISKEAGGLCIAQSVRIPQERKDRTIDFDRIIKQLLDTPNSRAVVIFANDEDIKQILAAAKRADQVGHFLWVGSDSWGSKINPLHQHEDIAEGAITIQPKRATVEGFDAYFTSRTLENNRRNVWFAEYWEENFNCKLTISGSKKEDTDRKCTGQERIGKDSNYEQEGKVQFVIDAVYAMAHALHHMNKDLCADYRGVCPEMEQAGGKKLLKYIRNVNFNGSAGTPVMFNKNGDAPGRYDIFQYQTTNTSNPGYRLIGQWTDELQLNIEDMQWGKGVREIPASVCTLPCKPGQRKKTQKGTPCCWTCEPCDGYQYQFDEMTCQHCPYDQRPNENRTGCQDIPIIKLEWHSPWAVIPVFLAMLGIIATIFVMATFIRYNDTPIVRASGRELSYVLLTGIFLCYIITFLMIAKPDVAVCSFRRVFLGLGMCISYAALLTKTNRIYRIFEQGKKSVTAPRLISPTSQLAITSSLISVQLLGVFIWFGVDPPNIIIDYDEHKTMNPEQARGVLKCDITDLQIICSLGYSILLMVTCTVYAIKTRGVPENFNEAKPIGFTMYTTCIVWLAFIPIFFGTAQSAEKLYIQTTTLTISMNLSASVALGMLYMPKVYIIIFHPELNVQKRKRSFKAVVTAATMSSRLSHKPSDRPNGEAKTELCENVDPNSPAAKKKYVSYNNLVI
Chain of Metabotropic glutamate receptor 5 (P41594 whole entry): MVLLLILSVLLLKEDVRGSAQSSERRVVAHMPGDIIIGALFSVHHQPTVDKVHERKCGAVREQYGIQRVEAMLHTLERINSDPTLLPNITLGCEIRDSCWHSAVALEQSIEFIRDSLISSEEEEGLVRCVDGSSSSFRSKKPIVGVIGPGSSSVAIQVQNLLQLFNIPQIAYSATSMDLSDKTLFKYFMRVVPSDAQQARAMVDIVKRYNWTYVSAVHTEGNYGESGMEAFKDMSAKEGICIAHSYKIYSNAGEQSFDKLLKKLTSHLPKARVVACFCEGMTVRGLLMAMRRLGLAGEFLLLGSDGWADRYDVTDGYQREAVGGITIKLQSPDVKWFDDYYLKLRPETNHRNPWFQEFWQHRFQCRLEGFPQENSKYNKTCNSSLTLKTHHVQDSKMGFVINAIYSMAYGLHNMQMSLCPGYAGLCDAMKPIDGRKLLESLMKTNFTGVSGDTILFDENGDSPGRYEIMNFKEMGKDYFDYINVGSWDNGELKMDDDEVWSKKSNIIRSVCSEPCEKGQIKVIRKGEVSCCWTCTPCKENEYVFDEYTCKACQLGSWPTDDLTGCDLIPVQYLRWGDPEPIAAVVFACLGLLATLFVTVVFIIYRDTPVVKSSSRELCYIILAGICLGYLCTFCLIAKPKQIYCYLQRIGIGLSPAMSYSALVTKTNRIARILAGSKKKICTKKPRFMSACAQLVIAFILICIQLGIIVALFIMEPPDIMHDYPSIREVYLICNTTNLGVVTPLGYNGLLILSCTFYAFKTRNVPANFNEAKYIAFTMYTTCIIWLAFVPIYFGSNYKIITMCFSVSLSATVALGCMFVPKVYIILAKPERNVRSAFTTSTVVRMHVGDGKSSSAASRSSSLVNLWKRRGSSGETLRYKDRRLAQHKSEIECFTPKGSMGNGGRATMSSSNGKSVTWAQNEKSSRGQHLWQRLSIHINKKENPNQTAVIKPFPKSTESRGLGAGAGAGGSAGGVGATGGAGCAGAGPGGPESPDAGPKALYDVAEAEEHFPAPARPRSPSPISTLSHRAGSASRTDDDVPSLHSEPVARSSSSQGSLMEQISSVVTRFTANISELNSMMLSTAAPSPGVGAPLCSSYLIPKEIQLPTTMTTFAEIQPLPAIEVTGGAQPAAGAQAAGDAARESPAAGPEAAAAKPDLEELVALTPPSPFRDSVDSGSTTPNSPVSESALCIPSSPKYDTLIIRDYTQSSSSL
Chain of Metabotropic glutamate receptor 2 (Q14416 whole entry): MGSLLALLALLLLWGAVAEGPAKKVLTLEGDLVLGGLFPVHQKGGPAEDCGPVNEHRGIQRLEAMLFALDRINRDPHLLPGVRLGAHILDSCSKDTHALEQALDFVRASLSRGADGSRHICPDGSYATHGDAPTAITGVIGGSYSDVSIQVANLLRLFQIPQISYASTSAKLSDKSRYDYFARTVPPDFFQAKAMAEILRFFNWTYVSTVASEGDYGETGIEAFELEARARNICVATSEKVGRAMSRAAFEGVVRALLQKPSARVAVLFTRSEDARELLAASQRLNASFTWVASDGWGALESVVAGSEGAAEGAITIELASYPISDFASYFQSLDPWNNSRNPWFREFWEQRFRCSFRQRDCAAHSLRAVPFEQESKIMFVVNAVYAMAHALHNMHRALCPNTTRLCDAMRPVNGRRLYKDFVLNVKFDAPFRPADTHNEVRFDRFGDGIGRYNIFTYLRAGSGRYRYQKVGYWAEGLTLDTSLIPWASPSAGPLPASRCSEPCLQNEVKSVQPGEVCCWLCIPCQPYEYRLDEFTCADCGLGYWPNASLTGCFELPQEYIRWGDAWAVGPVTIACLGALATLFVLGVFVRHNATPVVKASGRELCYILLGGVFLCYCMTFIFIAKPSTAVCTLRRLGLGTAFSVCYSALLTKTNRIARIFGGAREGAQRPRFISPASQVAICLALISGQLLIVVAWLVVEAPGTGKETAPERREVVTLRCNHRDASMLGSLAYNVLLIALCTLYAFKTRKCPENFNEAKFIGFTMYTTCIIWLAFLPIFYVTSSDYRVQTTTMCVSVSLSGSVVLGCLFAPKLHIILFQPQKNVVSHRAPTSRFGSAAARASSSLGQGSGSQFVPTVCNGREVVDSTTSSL
Chain of Metabotropic glutamate receptor 3 (Q14832 whole entry): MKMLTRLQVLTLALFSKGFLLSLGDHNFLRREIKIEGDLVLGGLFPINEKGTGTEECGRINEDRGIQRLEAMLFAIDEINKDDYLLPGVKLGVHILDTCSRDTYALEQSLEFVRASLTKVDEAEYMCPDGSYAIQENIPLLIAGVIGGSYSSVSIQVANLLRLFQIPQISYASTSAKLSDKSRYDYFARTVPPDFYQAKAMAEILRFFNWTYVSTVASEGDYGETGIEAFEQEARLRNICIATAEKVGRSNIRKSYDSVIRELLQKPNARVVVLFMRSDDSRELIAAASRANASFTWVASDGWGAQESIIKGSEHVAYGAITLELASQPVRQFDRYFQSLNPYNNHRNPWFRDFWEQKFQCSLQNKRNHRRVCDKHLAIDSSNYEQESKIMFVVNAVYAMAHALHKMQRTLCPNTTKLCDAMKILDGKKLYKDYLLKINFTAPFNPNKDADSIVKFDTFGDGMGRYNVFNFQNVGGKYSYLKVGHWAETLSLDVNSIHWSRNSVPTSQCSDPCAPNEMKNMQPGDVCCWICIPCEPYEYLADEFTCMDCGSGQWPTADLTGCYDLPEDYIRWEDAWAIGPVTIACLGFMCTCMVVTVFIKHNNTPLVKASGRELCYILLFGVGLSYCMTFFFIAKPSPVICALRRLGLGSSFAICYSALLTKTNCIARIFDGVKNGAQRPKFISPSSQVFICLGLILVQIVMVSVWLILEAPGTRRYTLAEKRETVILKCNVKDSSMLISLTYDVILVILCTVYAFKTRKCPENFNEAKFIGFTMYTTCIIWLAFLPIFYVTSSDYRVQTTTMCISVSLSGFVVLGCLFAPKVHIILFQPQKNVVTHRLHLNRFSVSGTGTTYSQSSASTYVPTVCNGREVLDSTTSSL

| Structure (SMILES) | EC50 [1] [nM] | %max [2, 23] [%] | other results |
| --- | --- | --- | --- |
| O=C1CCSC[C@H](C(=O)Nc2cccc(Br)c2)N1 | > 30000 | – | – |
| O=C1CCSC[C@@H](C(=O)Nc2cc(F)cc(F)c2)N1 | 8900 | 102 | – |
| O=C(NC1CC(F)(F)C1)c1nsc2cc(Nc3n[nH]c4cccnc34)ccc12 | – | – | solubility kinetic [3]: 0.9 µM (≈ 0.36 µg/mL) |
| O=C1CCSC[C@@H](C(=O)Nc2cc(Br)cc(I)c2)N1 | 115 | 101 | – |
| O=C1CCSC[C@@H](C(=O)Nc2cc(F)cc(Cl)c2)N1 | 278 | 112 | – |
| O=C1CCSC[C@@H](C(=O)Nc2cc(Cl)cc(Br)c2)N1 | 33 | 108 | inhibition in vivo at 3 mg/kg [4]: 26.5%; IC50 [5]: > 10000 nM; solubility kinetic [3]: 6.2 µM (≈ 2.25 µg/mL); fraction unbound [6]: 0.028; IC50 [7]: > 10000 nM; IC50 [8]: > 10000 nM; inhibition in vivo at 10 mg/kg [9]: 42.6%; Kp uu [10]: 0.7; IC50 [11]: > 10000 nM; Activity [12]: Dose-dependent effect; fraction unbound [13]: 0.018; Time [14]: 28.6 s; Kp [15]: 0.45; Time [16]: 22.2 s; inhibition in vivo at 30 mg/kg [17]: 55.4%; Time [18]: 36.6 s; IC50 [19]: > 10000 nM; fraction unbound [20]: 0.011 |
| Cc1cc(C)cc(NC(=O)[C@@H]2CSCCC(=O)N2)c1 | > 10000 | – | %max [2]: < 30% |
| O=C1CCSC[C@@H](C(=O)Nc2cccc(Br)c2)N1 | 6200 | 98 | – |
| O=C1CCSC[C@H](C(=O)Nc2cc(Cl)cc(Br)c2)N1 | 64 | 98 | – |
| O=C1CCSC[C@@H](C(=O)Nc2cc(Cl)cc(Cl)c2)N1 | 273 | 88 | – |
| O=C1CCSC[C@@H](C(=O)Nc2cc(Br)cc(Br)c2)N1 | 35 | 97 | fraction unbound [6]: 0.006; Kp uu [10]: 0.1; fraction unbound [13]: 0.011; Kp [15]: 0.19; fraction unbound [20]: 0.007 |
| O=C1CCSC[C@@H](C(=O)Nc2cc(F)cc(Br)c2)N1 | 351 | 101 | – |
| O=C1CCSC[C@H](C(=O)Nc2cc(Br)cc(Br)c2)N1 | 76 | 104 | – |
| Fc1ccc(Nc2n[nH]c3cccnc23)cc1Cl | – | – | Time [21]: 17.9 s; inhibition (INH) [22]: 64% |
| O=C1CCSC[C@@H](C(=O)Nc2cccc(Cl)c2)N1 | 148 | 120 | fraction unbound [6]: 0.01; fraction unbound [13]: 0.02; fraction unbound [20]: 0.03 |
| Cc1cc(Cl)cc(NC(=O)[C@@H]2CSCCC(=O)N2)c1 | 1090 | 87 | – |
| O=C1CCSC[C@@H](C(=O)Nc2cc(C(F)(F)F)cc(C(F)(F)F)c2)N1 | 950 | 102 | – |
| O=C1CCSC[C@@H](C(=O)Nc2cc(F)cc(I)c2)N1 | 558 | 102 | – |
